Assay results: PubChem BioAssay AID256 (DTP/NCI, 2004)
Several values for one entry are separate records, joined by “and”; a condition that tells them apart may be missing. Equal values may be shown once. Inconclusive results and toxic doses are left out. The calls were made as follows: active = survival T/C of 150% or more; inactive = T/C below 125% in these data.

Test system: CD2F1 mice, L1210 leukemia ip, survival T/C
Assay: NCI In Vivo Anticancer Drug Screen. Data for tumor model L1210 Leukemia (intraperitoneal) in CD2F1 (CDF1) mice
Settings: higher = longer survival
How it was run: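 Ratio T/C, where T is the treated-group value and C the vehicle-dosed control value, from mice implanted with a transplantable tumor.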

[1] = endpoint: mean survival time, dose: 25.0 mg/kg/injection, schedule: Q01DX009 (ip), vehicle: saline with Tween-80
[2] = endpoint: mean survival time, dose: 50.0 mg/kg/injection, schedule: Q01DX009 (ip), vehicle: saline with Tween-80
[3] = endpoint: mean survival time, dose: 50.0 mg/kg/injection, schedule: Q04DX003 (ip), vehicle: saline with Tween-80
[4] = endpoint: mean survival time, dose: 100.0 mg/kg/injection, schedule: Q01DX009 (ip), vehicle: saline with Tween-80
[5] = endpoint: mean survival time, dose: 100.0 mg/kg/injection, schedule: Q04DX003 (ip), vehicle: saline with Tween-80
[6] = endpoint: mean survival time, dose: 100.0 mg/kg/injection, schedule: Q04DX002 (ip), vehicle: saline with Tween-80
[7] = endpoint: mean survival time, dose: 200.0 mg/kg/injection, schedule: Q04DX002 (ip), vehicle: saline with Tween-80
[8] = endpoint: mean survival time, dose: 400.0 mg/kg/injection, schedule: Q04DX002 (ip), vehicle: saline with Tween-80
[9] = endpoint: mean survival time, dose: 25.0 mg/kg/injection, schedule: Q04DX003 (ip), vehicle: saline with Tween-80
[10] = endpoint: mean survival time, dose: 200.0 mg/kg/injection, schedule: Q01DX009 (ip), vehicle: saline with Tween-80
[11] = endpoint: mean survival time, dose: 200.0 mg/kg/injection, schedule: Q04DX003 (ip), vehicle: saline with Tween-80
[12] = endpoint: mean survival time, dose: 400.0 mg/kg/injection, schedule: Q04DX003 (ip), vehicle: saline with Tween-80
[13] = endpoint: mean survival time, dose: 400.0 mg/kg/injection, schedule: Q01DX009 (ip), vehicle: saline with Tween-80

Measured: T/C

CN(C)CCN(C)C
inactive: endpoint: mean survival time, dose: 100.0 mg/kg/injection, schedule: Q01DX009 (ip), vehicle: saline 96 % of control | endpoint: mean survival time, dose: 400.0 mg/kg/injection, schedule: Q01DX009 (ip), vehicle: saline 106 % of control

CC12CCC(C(=O)C1)C1(C)CCCC(=O)C21 (centres undefined)
inactive: endpoint: mean survival time, dose: 75.0 mg/kg/injection, schedule: Q01DX001 (ip), vehicle: other 97 % of control

c1ccc(CCNCc2ccccc2)cc1
inactive: [1] 94 % of control | [2] 98 % of control | [3] 104 % of control | [4] 88 % of control | [5] 97 % of control

NCC1CCNCC1
inactive: endpoint: mean survival time, dose: 25.0 mg/kg/injection, schedule: Q04DX002 (ip), vehicle: saline 94 % of control | endpoint: mean survival time, dose: 50.0 mg/kg/injection, schedule: Q04DX002 (ip), vehicle: saline 97 % of control | endpoint: mean survival time, dose: 100.0 mg/kg/injection, schedule: Q04DX002 (ip), vehicle: saline 91 % of control | endpoint: mean survival time, dose: 200.0 mg/kg/injection, schedule: Q04DX002 (ip), vehicle: saline 102 % of control

Nc1ncnc2c1ncn2CCC(=O)O
inactive: endpoint: mean survival time, dose: 100.0 mg/kg/injection, schedule: Q01DX001 (ip), vehicle: saline with Tween-80 94 % of control | [6] 105 % of control | endpoint: mean survival time, dose: 200.0 mg/kg/injection, schedule: Q01DX001 (ip), vehicle: saline with Tween-80 92 % of control | [7] 97 % of control | endpoint: mean survival time, dose: 400.0 mg/kg/injection, schedule: Q01DX001 (ip), vehicle: saline with Tween-80 90 % of control | [8] 105 % of control

O=[N+]([O-])c1c(O)c(CNCCCO)cc(CNCCCO)c1O
inactive: endpoint: median survival time, dose: 6.25 mg/kg/injection, schedule: Q01DX009 (ip), vehicle: saline 100 % of control | endpoint: median survival time, dose: 12.5 mg/kg/injection, schedule: Q01DX009 (ip), vehicle: saline 97 % of control | endpoint: median survival time, dose: 25.0 mg/kg/injection, schedule: Q01DX009 (ip), vehicle: saline 88 % of control | endpoint: median survival time, dose: 50.0 mg/kg/injection, schedule: Q01DX009 (ip), vehicle: saline 92 % of control

[Cl][Pt+2][Cl].[NH-]C1CCCC2CCC[N-]C12 (centres undefined)
inactive: [6] 105 % of control | [7] 121 % of control | [8] 110 % of control

Cc1ccccc1C(C)NC1=NCCO1 (centres undefined)
inactive: endpoint: mean survival time, dose: 6.25 mg/kg/injection, schedule: Q01DX009 (ip), vehicle: saline with Tween-80 90 % of control | endpoint: mean survival time, dose: 6.25 mg/kg/injection, schedule: Q04DX003 (ip), vehicle: saline with Tween-80 96 % of control | endpoint: mean survival time, dose: 12.5 mg/kg/injection, schedule: Q01DX009 (ip), vehicle: saline with Tween-80 96 % of control | endpoint: mean survival time, dose: 12.5 mg/kg/injection, schedule: Q04DX003 (ip), vehicle: saline with Tween-80 95 % of control | [1] 97 % of control | [9] 93 % of control

OC12CC(C(F)(F)F)(C(F)(F)F)OC1(O)CC(C(F)(F)F)(C(F)(F)F)O2 (centres undefined)
inactive: [2] 95 % of control | [4] 95 % of control | [10] 95 % of control

O=C1C(=O)c2ccccc2C(O)=C1[N+](=O)[O-]
inactive: [4] 96 % of control | [5] 100 % of control | [11] 103 % of control | [12] 112 % of control

c1ccc(N/N=C(/C[n+]2cc3ccccc3c3ccccc32)c2ccccc2)cc1
inactive: endpoint: mean survival time, dose: 100.0 mg/kg/injection, schedule: Q04DX003 (ip), vehicle: Klucel (hydroxypropylcellulose) (HPC) 94 % of control | endpoint: mean survival time, dose: 200.0 mg/kg/injection, schedule: Q04DX003 (ip), vehicle: Klucel (hydroxypropylcellulose) (HPC) 106 % of control | endpoint: mean survival time, dose: 400.0 mg/kg/injection, schedule: Q04DX003 (ip), vehicle: Klucel (hydroxypropylcellulose) (HPC) 109 % of control

CC(=O)N1C(=O)C2(Nc3cccnc3N2)c2ccccc21 (centres undefined)
inactive: endpoint: mean survival time, dose: 100.0 mg/kg/injection, schedule: Q04DX003 (ip), vehicle: saline sonified 97 % of control | endpoint: mean survival time, dose: 200.0 mg/kg/injection, schedule: Q04DX003 (ip), vehicle: saline sonified 88 % of control | endpoint: mean survival time, dose: 400.0 mg/kg/injection, schedule: Q04DX003 (ip), vehicle: saline sonified 103 % of control

CCNC(=S)Nc1ccc(Cl)cc1
inactive: [9] 104 % of control | [3] 101 % of control | [5] 91 % of control

CN(C)[C@@H]1C(=O)C(C(=O)NCNC(CO)(CO)CO)=C(O)[C@@]2(O)C(=O)C3=C(O)c4c(O)cccc4[C@@](C)(O)[C@H]3C[C@@H]12
inactive: endpoint: mean survival time, dose: 200.0 mg/kg/injection, schedule: Q01DX009 (ip), vehicle: saline 93 % of control | endpoint: mean survival time, dose: 264.0 mg/kg/injection, schedule: Q01DX009 (ip), vehicle: acetone 97 % of control | endpoint: mean survival time, dose: 300.0 mg/kg/injection, schedule: Q01DX009 (ip), vehicle: saline 98 % of control | endpoint: mean survival time, dose: 400.0 mg/kg/injection, schedule: Q01DX009 (ip), vehicle: acetone 92 % of control

N/C(=N\O)c1ncnc2c1ncn2C1OC(CO)C(O)C1O (centres undefined)
inactive: endpoint: median survival time, dose: 6.25 mg/kg/injection, schedule: Q01DX005 (ip), vehicle: distilled water + Tween-80 107 % of control | endpoint: median survival time, dose: 12.5 mg/kg/injection, schedule: Q01DX005 (ip), vehicle: distilled water + Tween-80 115 % of control | endpoint: median survival time, dose: 25.0 mg/kg/injection, schedule: Q01DX005 (ip), vehicle: distilled water + Tween-80 108 % of control | endpoint: median survival time, dose: 50.0 mg/kg/injection, schedule: Q01DX005 (ip), vehicle: distilled water + Tween-80 111 % of control | endpoint: median survival time, dose: 100.0 mg/kg/injection, schedule: Q01DX005 (ip), vehicle: distilled water + Tween-80 111 % of control

CCOC(=O)C(O)c1ccccc1 (centres undefined)
inactive: [4] 101 % of control | [10] 96 % of control | [13] 93 % of control

CCOC12CC3C4=CCOC5CC(=O)N6c7ccccc7C1(CCN2C4)C6C53 (centres undefined)
inactive: endpoint: mean survival time, dose: 5.0 mg/kg/injection, schedule: Q01DX001 (ip), vehicle: saline 98 % of control | endpoint: mean survival time, dose: 10.0 mg/kg/injection, schedule: Q01DX001 (ip), vehicle: saline 101 % of control | endpoint: mean survival time, dose: 20.0 mg/kg/injection, schedule: Q01DX001 (ip), vehicle: saline 95 % of control | endpoint: mean survival time, dose: 40.0 mg/kg/injection, schedule: Q01DX001 (ip), vehicle: saline 97 % of control

CCCCCc1cc(/C=C2/N=C(c3ccc[nH]3)C=C2OC)[nH]c1C
inactive: endpoint: mean survival time, dose: 0.25 mg/kg/injection, schedule: Q01DX009 (ip), vehicle: saline with Tween-80 92 % of control | endpoint: mean survival time, dose: 0.5 mg/kg/injection, schedule: Q01DX009 (ip), vehicle: saline with Tween-80 97 % of control | endpoint: mean survival time, dose: 1.0 mg/kg/injection, schedule: Q01DX009 (ip), vehicle: saline with Tween-80 101 % of control | endpoint: mean survival time, dose: 2.0 mg/kg/injection, schedule: Q01DX009 (ip), vehicle: saline with Tween-80 103 % of control | endpoint: mean survival time, dose: 4.0 mg/kg/injection, schedule: Q01DX009 (ip), vehicle: saline with Tween-80 92 % of control

CCOC/C=C\C1CCCC1
inactive: [2] 94 % of control | [4] 100 % of control | [10] 102 % of control

O=C(Nc1ccc(Cl)cc1)OCCN1CCOCC1
inactive: [4] 90 % of control | [5] 93 % of control | [10] 92 % of control | [11] 94 % of control | [13] 91 % of control | [12] 89 % of control

CCOc1ccc(NC(=O)C2CCC(C)(C(=O)O)C2(C)C)cc1 (centres undefined)
inactive: [1] 102 % of control | [9] 98 % of control | [2] 98 % of control | [3] 100 % of control | [4] 95 % of control | [5] 96 % of control and 98 % of control

O=c1[nH]c(=S)[nH]c(-c2ccccc2)c1CCO
inactive: [5] 97 % of control | [11] 101 % of control | [12] 91 % of control

CCc1ccc(C(=O)CCCCl)cc1
inactive: [4] 104 % of control | [10] 100 % of control | [13] 100 % of control
